According to publication PMC3871636 (PLoS ONE, 2013):

Tests used:
[1] = molecular target: T1, double-labeled CYP3A4 C64/C121-DY/ER (Homo sapiens, UniProt P08684, A121C/C239S/C377S/C468A/C98S/S18F); test: Steady-state LRET titration (delayed emission); conditions: Table S2; protein C64/C121-ER/DY; same ligand concentrations
Description: (§1) All absorbance and fluorescence assays (including the time-resolved fluorescence measurements) were performed at a protein concentration ≤1 µM at 25°C with continuous stirring. Absorbance spectra were recorded with an S2000 rapid scanning CCD spectrometer (Ocean Optics). Ligand binding assays were done in 100 mM Na-Hepes buffer, pH 7.4, containing 0.5 mM EDTA.
(§2) Fluorescence-based ligand binding assays were done under anaerobic conditions. Anaerobiosis was achieved using an oxygen-scavenging system consisting of protecatechuate-3,4-dioxygenase (0.5 units/ml) and 5 mM protocatechuic acid. The steady state and time-resolved phosphorescence measurements were performed with the use of a Cary Eclipse fluorescence spectrophotometer (Varian/Agilent Technologies). The excitation wavelength was set to 540 nm. Spectra were taken from 650 to 860 nm with 100 µs delay.
(§3) Quantitative interpretation of LRET results was also based on the use of PCA applied to a series of emission spectra normalized on integral intensity. […] Intensity of the donor and acceptor fluorescence obtained in this way were used in determination of the efficiency of steady-state LRET using the equation [drawing 1] (Eq.1) where I ad is emission intensity of the acceptor, I da is the residual donor emission in the presence of acceptor (I da), Φ a and Φ d are the quantum yield of the fluorescence of acceptor and the quantum yield of the phosphorescence of donor, respectively.
(§4) Distances were calculated using the equation: [drawing 3] (Eq.3) where R 0 is the Förster distance, and R is the distance between the donor and acceptor. R 0 was calculated with the use of PhotoChemCad software. In these calculations, we used the values of the orientation factor (κ^2) and the refractive index (n) of 0.667 and 1.4, respectively.
(§5) When fitting the results of titration experiments, where the changes in the monitored signal A S (fraction of the enzyme in the high-spin state, intensity or the lifetime of the donor phosphorescence at a given substrate concentration) were assumed to be proportional to [ES], this equation was complemented with the offset A 0 and the scaling factor A max to yield the following relationship: [drawing 5] (Eq.5)

[2] = molecular target: T1, double-labeled CYP3A4 C64/C121-DY/ER; test: Time-resolved LRET (phosphorescence lifetime measurements); conditions: same ligand concentrations
Description: as §1, §2
The treatment of the time-resolved decay traces was performed using a bi-exponential approximation. The efficiency of time-resolved LRET was calculated using the equation [drawing 2] (Eq.2)
In this equation τda and τd designate the average lifetime of the excited state of the donor in the presence and absence of the acceptor, respectively. These average lifetimes are determined as τ = α1τ1+α2τ2, where τ1,2 and α1,2 stay for the lifetime and the relative amplitude of each of the two exponential terms. In our calculations of the lifetime in double-labeled C64/C468, C377/C468 and C64/C121 proteins we used the lifetimes of phosphorescence measured with the respective proteins labeled with ERIA at a label:protein ratio 2∶1 as the estimates of τd.
as §4

[3] = molecular target: T2, double-labeled CYP3A4 (C64/C468)-DY/ER (Homo sapiens, UniProt P08684, S18F, form not given); test: as above
Description: (§6) The excitation wavelength was set to 540 nm.

[4] = molecular target: double-labeled CYP3A4 C377/C468-DY/ER (Homo sapiens, UniProt P08684, S18F, form not given); test: as above
Description: as §6

[5] = molecular target: T3, double-labeled CYP3A4 (C64/C468)-ER/DY (Homo sapiens, UniProt P08684, S18F, form not given); test: as above
Description: as §6

CYP3A4 (C64/C468 mutant) = CYP3A4 (C64/C468 mutant) (Homo sapiens, UniProt P08684, form not given/S18F); test: Ligand-induced spin shift, absorbance titration; format: binding; conditions: human, purified CYP3A4(C64/C468) mutant protein, pH 7.4; read-out: K D or S 50
Description: as §1
(§7) Absorbance spectra obtained in titration experiments were analyzed with a principal component analysis (PCA) procedure complemented with least-square approximation of the principal vectors with a combination of the prototypical spectra of the CYP3A4 low-spin, high-spin and Type II-substrate-bound ferric CYP3A4 P450 states as described, [31].
as §5

[6] = molecular target: CYP3A4 (C377/C468 mutant) (Homo sapiens, UniProt P08684, form not given/S18F); test: Ligand-induced spin shift, absorbance titration; format: binding; conditions: human, purified CYP3A4(C377/C468) mutant protein, pH 7.4; read-out: K D or S 50
Description: as §1, §7, §5

[7] = molecular target: T2, double-labeled CYP3A4 (C64/C468)-DY/ER; test: Steady-state LRET titration (delayed emission); format: binding
Description: as §1, §2, §3, §4, §5

[8] = molecular target: T3, double-labeled CYP3A4 (C64/C468)-ER/DY; test: Steady-state LRET titration (delayed emission); format: binding
Description: as §1, §2, §3, §4, §5

[9] = Table S1, protein (C64/C121)-ER/DY
[10] = Table S2, protein C64/C121-ER/DY
[11] = (C64/C468)-DY/ER, nearly-saturating ligand: ANF 100 µM, bromocriptine 2.5 µM, cholesterol 50 µM, testosterone 100 µM
[12] = Table S1, (C64/C468)-DY/ER, same ligand concentrations
[13] = Table S2, C64/C468-DY/ER, 1-PB 40 µM, ANF 100 µM, BCT 2.5 µM, cholesterol 100 µM, testosterone 100 µM
[14] = Table S2, C64/C468-DY/ER, same ligand concentrations
[15] = Table S1, protein (C377/C468)-ER/DY, same ligand concentrations
[16] = Table S2, protein C377/C468-ER/DY, same ligand concentrations
[17] = (C64/C468)-ER/DY, nearly-saturating ligand: ANF 100 µM, bromocriptine 2.5 µM, cholesterol 50 µM, testosterone 100 µM
[18] = Table S1, (C64/C468)-ER/DY, same ligand concentrations
[19] = Table S2, C64/C468-ER/DY, 1-PB 40 µM, ANF 100 µM, BCT 2.5 µM, cholesterol 100 µM, testosterone 100 µM
[20] = Table S2, C64/C468-ER/DY, same ligand concentrations

T1 sequence (P08684 with tags, fused parts or gaps S18F/C98S/A121C/C239S/C377S/C468A limits assumed): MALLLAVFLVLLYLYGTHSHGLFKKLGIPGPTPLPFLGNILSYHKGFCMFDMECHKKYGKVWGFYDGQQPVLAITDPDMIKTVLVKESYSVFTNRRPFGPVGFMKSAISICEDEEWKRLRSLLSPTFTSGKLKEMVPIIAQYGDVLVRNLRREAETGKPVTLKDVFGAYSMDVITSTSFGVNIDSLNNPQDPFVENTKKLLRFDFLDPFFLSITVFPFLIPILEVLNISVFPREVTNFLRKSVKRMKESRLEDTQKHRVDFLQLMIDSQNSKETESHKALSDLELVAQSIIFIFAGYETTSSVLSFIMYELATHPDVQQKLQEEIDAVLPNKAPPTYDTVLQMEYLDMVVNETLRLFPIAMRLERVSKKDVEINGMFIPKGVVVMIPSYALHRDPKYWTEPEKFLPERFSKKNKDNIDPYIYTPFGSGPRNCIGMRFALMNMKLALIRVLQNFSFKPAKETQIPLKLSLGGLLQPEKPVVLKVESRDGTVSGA
T2 sequence (P08684 13-503 S18F, form open): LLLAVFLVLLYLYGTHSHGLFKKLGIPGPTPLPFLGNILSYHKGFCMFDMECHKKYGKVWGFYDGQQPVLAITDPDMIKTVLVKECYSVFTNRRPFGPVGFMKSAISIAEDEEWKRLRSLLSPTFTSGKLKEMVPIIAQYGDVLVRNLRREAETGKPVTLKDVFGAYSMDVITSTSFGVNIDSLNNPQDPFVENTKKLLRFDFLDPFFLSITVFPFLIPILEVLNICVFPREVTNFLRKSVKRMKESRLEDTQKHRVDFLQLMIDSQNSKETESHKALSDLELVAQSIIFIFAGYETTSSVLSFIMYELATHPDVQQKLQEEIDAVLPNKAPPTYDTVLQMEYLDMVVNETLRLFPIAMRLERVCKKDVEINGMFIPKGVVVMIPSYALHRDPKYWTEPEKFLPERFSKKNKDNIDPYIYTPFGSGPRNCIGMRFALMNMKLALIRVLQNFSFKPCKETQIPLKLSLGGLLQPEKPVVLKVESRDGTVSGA
T3 sequence (P08684 13-503 S18F, form open): as above
Sequence of double-labeled CYP3A4 C377/C468-DY/ER (P08684 13-503 S18F, form open): as above
Sequence of CYP3A4 (C64/C468 mutant) (P08684 13-503 S18F, form open): as above
Sequence of CYP3A4 (C377/C468 mutant) (P08684 13-503 S18F, form open): as above

O=c1cc(-c2ccccc2)oc2c1ccc1ccccc12 [ANF, α-naphthoflavone]
R (interprobe distance with ligand), steady-state measurements [1]: 43.4 ± 0.1 Å | ΔR, steady-state measurements [1]: 1.1 ± 0.1 Å | F1 (fraction of first exponential) [2, 9]: 43 ± 7% | τ2 (phosphorescence decay time with ligand) [2, 9]: 232 ± 22 µs | τav (average phosphorescence lifetime with ligand) [2, 9]: 159 ± 7 µs | R (interprobe distance with ligand), lifetime measurements [2, 10]: 36.4 ± 0.5 Å | ΔR, lifetime measurements [2, 10]: 1.3 ± 0.5 Å | ΔELT (change in LRET efficiency), lifetime measurements [3, 11]: −6.8±3% | ΔR (change in interprobe distance), lifetime measurements [3, 11]: 1.8±0.7 Å | τ1 (phosphorescence decay time with ligand) ([3]; Table S1, (C64/C468)-DY/ER, 1-PB 40 µM, ANF 100 µM, BCT 2.5 µM, cholesterol 100 µM, testosterone 100 µM, bi-exponential fit): 54 ± 1 µs | F1 (fraction of first exponential) [3, 12]: 45 ± 5% | τ2 (phosphorescence decay time with ligand) [3, 12]: 231 ± 15 µs | τav (average phosphorescence lifetime with ligand) [3, 12]: 154 ± 4 µs | E (LRET efficiency with ligand), lifetime measurements [3, 13]: 34 ± 2% | R (interprobe distance with ligand), lifetime measurements [3, 14]: 38.6 ± 0.5 Å | ΔR, lifetime measurements [3, 14]: 1.8 ± 0.5 Å | τ1 (phosphorescence decay time with ligand) ([4]; Table S1, protein (C377/C468)-ER/DY, 1-PB 40 µM, ANF 100 µM, BCT 2.5 µM, cholesterol 100 µM, testosterone 100 µM, bi-exponential fit): 42 ± 10 µs | F1 (fraction of first exponential) [4, 15]: 28 ± 5% | τ2 (phosphorescence decay time with ligand) [4, 15]: 188 ± 18 µs | τav (average phosphorescence lifetime with ligand) [4, 15]: 147 ± 8 µs | E (LRET efficiency with ligand), lifetime measurements ([4]; Table S2, protein C377/C468-ER/DY, 1-PB 40 µM, ANF 100 µM, BCT 2.5 µM, cholesterol 100 µM, testosterone 100 µM): 19 ± 4% | R (interprobe distance with ligand), lifetime measurements [4, 16]: 43.9 ± 2.3 Å | ΔR, lifetime measurements [4, 16]: 7.1 ± 2.3 Å | ΔELT (change in LRET efficiency), lifetime measurements [5, 17]: −14.5±1% | ΔR (change in interprobe distance), lifetime measurements [5, 17]: 4.1±0.2 Å | τ1 (phosphorescence decay time with ligand) ([5]; Table S1, (C64/C468)-ER/DY, 1-PB 40 µM, ANF 100 µM, BCT 2.5 µM, cholesterol 100 µM, testosterone 100 µM, bi-exponential fit): 53 ± 2 µs | F1 (fraction of first exponential) [5, 18]: 34 ± 1% | τ2 (phosphorescence decay time with ligand) [5, 18]: 216 ± 3 µs | τav (average phosphorescence lifetime with ligand) [5, 18]: 168 ± 1 µs | E (LRET efficiency with ligand), lifetime measurements [5, 19]: 28 ± 1% | R (interprobe distance with ligand), lifetime measurements [5, 20]: 40.4 ± 0.1 Å | ΔR, lifetime measurements [5, 20]: 4.1 ± 0.1 Å | Kd (CYP3A4 (C64/C468 mutant)): 5.1 ± 1.5 µM | Kd [6]: 6.2 ± 1.2 µM | ΔR (change in interprobe distance), steady-state fluorescence ([7]; (C64/C468)-DY/ER): 3.9±1.7 Å | ΔE (change in LRET efficiency), steady-state fluorescence ([7]; (C64/C468)-DY/ER, from maximal relative change in donor intensity): −18±1% | E (LRET efficiency with ligand), steady-state measurements [7, 13]: 29 ± 1% | R (interprobe distance with ligand), steady-state measurements [7, 14]: 38.8 ± 1 Å | ΔR, steady-state measurements [7, 14]: 3.9 ± 1.7 Å | ΔR (change in interprobe distance), steady-state fluorescence ([8]; (C64/C468)-ER/DY): 2.1±0.9 Å | ΔE (change in LRET efficiency), steady-state fluorescence ([8]; (C64/C468)-ER/DY, from maximal relative change in donor intensity): −8±4% | E (LRET efficiency with ligand), steady-state measurements [8, 19]: 23 ± 2% | R (interprobe distance with ligand), steady-state measurements [8, 20]: 41.2 ± 0.9 Å | ΔR, steady-state measurements [8, 20]: 2.1 ± 0.9 Å
